Measured values taken from the NIST ThermoML archive (doi:10.1016/j.jct.2018.05.027).

Assay: xn = mol fraction of the nth substance listed
Settings: Liquid, Vibrating wire viscometry

Cc1ccc(C)c(C)c1 [1,2,4-trimethylbenzene] + CCC(C)O
viscosity [mPa·s]
Settings	293.15 K	313.15 K	333.15 K	353.15 K
100 kPa, x2 = 0.3011	0.9506	0.708	0.539	0.43
100 kPa, x2 = 0.5001	1.108	0.7802	0.5777	0.4439
100 kPa, x2 = 0.7999	1.834	1.097	0.7185	0.4963
1000 kPa, x2 = 0.3011	0.9531	0.7098	0.5411	0.436
1000 kPa, x2 = 0.5001	1.117	0.7964	0.5881	0.4481
1000 kPa, x2 = 0.7999	1.863	1.131	0.7301	0.5
5000 kPa, x2 = 0.3011	0.9988	0.7427	0.571	0.4507
5000 kPa, x2 = 0.5001	1.173	0.8335	0.6122	0.467
5000 kPa, x2 = 0.7999	1.964	1.187	0.7583	0.5157
10000 kPa, x2 = 0.3011	1.051	0.7727	0.5928	0.4678
10000 kPa, x2 = 0.5001	1.235	0.8676	0.6383	0.4891
10000 kPa, x2 = 0.7999	2.099	1.244	0.7963	0.5386
20000 kPa, x2 = 0.3011	1.137	0.8356	0.634	0.4988
20000 kPa, x2 = 0.5001	1.329	0.9318	0.6899	0.5215
20000 kPa, x2 = 0.7999	2.326	1.363	0.8656	0.584
30000 kPa, x2 = 0.3011	1.238	0.9034	0.6817	0.5358
30000 kPa, x2 = 0.5001	1.462	1.031	0.739	0.5615
30000 kPa, x2 = 0.7999	2.611	1.515	0.9569	0.6316
40000 kPa, x2 = 0.3011	1.334	0.9814	0.7313	0.57
40000 kPa, x2 = 0.5001	1.591	1.108	0.7961	0.5952
40000 kPa, x2 = 0.7999	2.897	1.666	1.039	0.6809
50000 kPa, x2 = 0.3011	1.452	1.055	0.784	0.605
50000 kPa, x2 = 0.5001	1.739	1.204	0.8558	0.6372
50000 kPa, x2 = 0.7999	3.229	1.835	1.13	0.7349
60000 kPa, x2 = 0.3011	1.57	1.132	0.8388	0.645
60000 kPa, x2 = 0.5001	1.906	1.3	0.9176	0.6813
60000 kPa, x2 = 0.7999	3.561	2.005	1.219	0.7906
70000 kPa, x2 = 0.3011	1.702	1.224	0.8962	0.6863
70000 kPa, x2 = 0.5001	2.061	1.394	0.9822	0.726
70000 kPa, x2 = 0.7999	3.917	2.187	1.321	0.849
80000 kPa, x2 = 0.3011	1.851	1.303	0.9559	0.7294
80000 kPa, x2 = 0.5001	2.257	1.502	1.046	0.7743
80000 kPa, x2 = 0.7999	4.274	2.368	1.424	0.9092
100000 kPa, x2 = 0.3011	2.152	1.491	1.089	0.821
100000 kPa, x2 = 0.5001	2.62	1.716	1.196	0.871
100000 kPa, x2 = 0.7999	5.09	2.741	1.653	1.04
120000 kPa, x2 = 0.3011	2.47	1.667	1.238	0.9204
120000 kPa, x2 = 0.5001	3.033	1.936	1.366	0.9782
120000 kPa, x2 = 0.7999	6.117	3.219	1.898	1.175
140000 kPa, x2 = 0.3011	2.838	1.904	1.385	1.038
140000 kPa, x2 = 0.5001	3.493	2.192	1.528	1.093
140000 kPa, x2 = 0.7999	7.143	3.693	2.144	1.339
